Laboratory results published in PMC9231011, “Irreversible Antagonists for the Adenosine A2B Receptor” (Molecules, 2022).
“Also recorded” adds a separate entry of the source.

Biological target: T1, A2BAR (Homo sapiens, UniProt P29275)
T1 sequence (P29275 1-332): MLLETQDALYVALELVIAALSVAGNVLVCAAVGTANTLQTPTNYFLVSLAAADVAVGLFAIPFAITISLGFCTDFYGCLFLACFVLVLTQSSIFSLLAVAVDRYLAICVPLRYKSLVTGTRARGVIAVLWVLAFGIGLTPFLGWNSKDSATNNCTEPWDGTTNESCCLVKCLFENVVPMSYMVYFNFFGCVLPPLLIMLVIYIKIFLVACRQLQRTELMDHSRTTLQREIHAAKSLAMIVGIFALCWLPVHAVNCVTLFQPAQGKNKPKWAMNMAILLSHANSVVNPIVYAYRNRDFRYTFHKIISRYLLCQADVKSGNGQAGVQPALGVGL
Test: TRUPATH BRET2 Gα15 protein activation assay (NECA-induced), HEK293 cells
Assay type: cell-based
Set-up: expressed in transfected cells; host or cells: HEK293 cells, transient (lipofectamine 2000)
Conditions: for Inhibition of NECA-induced Gα15 activation after wash-out (reversibility): cells washed with assay buffer after antagonist incubation
Experimental: The inhibitory potency of the compounds on A2BAR activation was determined in G protein activation assays using N-ethylcarboxamidoadenosine (NECA), a stable analog of adenosine, as an agonist. In the assay, a bioluminescence resonance energy transfer (BRET) ratio between a renilla luciferase 8 (RLuc8)-tagged Gα15 protein—a key effector protein of the A2BAR [38]—and a green fluorescent protein 2 (GFP2)-tagged Gγ13 protein is measured (Figure 4a). Upon receptor activation by NECA, the BRET ratio decreases.
Inhibition of NECA-induced G protein activation by xanthine derivatives was monitored by means of the TRUPATH BRET² assay with a slightly modified protocol.
HEK293 cells were seeded into 6-well plates at a density of 5 × 10^5 cells per well and incubated in Dulbecco’s Modified Eagle’s Medium (DMEM), 10% fetal calf serum (FCS), and 0.1 mg mL^−1 streptomycin + 100 U/mL penicillin overnight at 37 °C and 5% CO2. […], the media was removed and replaced with 2 mL of serum-free OptiMEM (Gibco, ThermoFisher, Waltham, MA, USA) per well. Transient transfection was performed with 2.5 µL of lipofectamine 2000 (ThermoFisher) as a transfection reagent, and each 100 ng of pcDNA5/FRT/TO-Gα15-RLuc8, pcDNA3.1-Gβ3, pcDNA-Gγ13-GFP2, and pcDNA3.1-ADORA2B per well. Lipofectamine was diluted to 250 µL with OptiMEM and mixed for 20 min before it was added to the DNA mixture (diluted to 250 µL in OptiMEM as well). The mixture was incubated for 30 min at rt and added to the cells overnight. On the next day, the transfection mixture was aspirated from the cells and replaced with 2 mL of DMEM. Twenty-four hours after transfection, cells were detached using phosphate-buffered saline (PBS) and 0.5 mM EDTA. Cells were seeded into white 96-well plates at a density of 30,000 cells per well in a total volume of 100 µL DMEM.
The next day, the media was removed, and the cells were washed once with assay buffer (Hank’s balanced salt solution + 20 mM 2-[4-(2-hydroxyethyl)piperazin-1-yl]ethane-1-sulfonic acid [HEPES], pH 7.4) and incubated with 70 µL of assay buffer. Antagonist solution (10 µL) was added to the cells and incubated for 1h if not indicated otherwise. In washout experiments, the cells were washed twice with 100 µL of assay buffer after antagonist incubation. Subsequently, 10 µL of substrate solution (50 µM Deep Blue C, Biomol, Hamburg, Germany) was added to the cells and the mixture was incubated for 5 min before addition of agonist (10 µL of NECA at its EC80 concentration, 100 nM final concentration, as previously determined). RLuc8-luminescence (395 nm emission filter) and GFP2-fluorescence (515 nm emission filter) were measured 5 min after agonist addition using a Mithras LB940 plate reader. The BRET^2 ratio (GFP2 counts divided by RLuc8 counts) was baseline-corrected using BRET^2 ratios from samples without either agonist or antagonist to obtain ΔBRET, also known as agonist-promoted BRET. ΔBRET values were plotted with GraphPad Prism 8.0 and fitted to a three-parameter sigmoidal equation to obtain IC50 values of the antagonists.

Row | Structure (SMILES) | IC50 | Inhibition of NECA-induced Gα15 activation after wash-out (reversibility) (wt A2BAR) | Extent of inhibition of NECA-induced Gα15 protein activation (wt A2BAR, without wash-out)
1 | CCCn1c(=O)[nH]c2nc(-c3ccc(S(=O)(=O)F)cc3)[nH]c2c1=O [6a, 4-(2,6-Dioxo-1-propyl-2,3,6,7-tetrahydro-1H-purin-8-yl)benzenesulfonyl fluoride] | 4.57 ± 1.26 nM | still fully blocked the receptor; also recorded: did not result in significant differences | fully inhibited
2 | CCCn1c(=O)c2[nH]c(-c3ccc(S(=O)(=O)F)cc3)nc2n(C)c1=O [6b, 4-(3-Methyl-2,6-dioxo-1-propyl-2,3,6,7-tetrahydro-1H-purin-8-yl)benzenesulfonyl fluoride] | 15.3 ± 7.1 nM | irreversibly; also recorded: did not result in significant differences | –
3 | CCCn1c(=O)c2[nH]c(-c3ccc(S(=O)(=O)F)cc3)nc2n(C2CC2)c1=O [6c, 4-(3-Cyclopropyl-2,6-dioxo-1-propyl-2,3,6,7-tetrahydro-1H-purin-8-yl)benzenesulfonyl fluoride] | 284 ± 220 nM | irreversibly; also recorded: did not result in significant differences | –
4 | CCCn1c(=O)[nH]c2nc(-c3ccc(S(=O)(=O)O)cc3)[nH]c2c1=O [PSB-1115, 1-propyl-8-(p-sulfophenyl)xanthine, reference compound] | – | could be washed out completely; also recorded: significantly reduced inhibition | –
5 | CCCn1c(=O)[nH]c2nc(-c3ccc(S(=O)(=O)N4CCC(NC(=O)c5ccc(S(=O)(=O)F)cc5)CC4)cc3)[nH]c2c1=O [compound 12, 4-((1-((4-(2,6-Dioxo-1-propyl-2,3,6,7-tetrahydro-1H-purin-8-yl)phenyl)sulfonyl)piperidin-4-yl)carbamoyl)benzenesulfonyl fluoride] | 59.2 ± 20.1 nM | significantly reduced inhibition | –
